Assay [1] has as its target Dual specificity protein kinase CLK1 (Homo sapiens, UniProt P49759).
In assay [2] the target is Ribosomal protein S6 kinase alpha-6 (Homo sapiens, UniProt Q9UK32).
For assay [3], the target named is Dual specificity mitogen-activated protein kinase kinase 2 (Homo sapiens, UniProt P36507).
Assay [4] deals with RAC-alpha serine/threonine-protein kinase (Homo sapiens, UniProt P31749).
Assay [5] has as its target Serine/threonine-protein kinase 10 (Homo sapiens, UniProt O94804).
For assay [6], the target named is Ephrin type-A receptor 5 (Homo sapiens, UniProt P54756).
For assay [7], the target named is Glycogen synthase kinase-3 alpha (Homo sapiens, UniProt P49840).
In assay [8] the target is T1, Dual specificity mitogen-activated protein kinase kinase 3 (Homo sapiens, UniProt P46734).
T1 sequence (P46734 whole entry): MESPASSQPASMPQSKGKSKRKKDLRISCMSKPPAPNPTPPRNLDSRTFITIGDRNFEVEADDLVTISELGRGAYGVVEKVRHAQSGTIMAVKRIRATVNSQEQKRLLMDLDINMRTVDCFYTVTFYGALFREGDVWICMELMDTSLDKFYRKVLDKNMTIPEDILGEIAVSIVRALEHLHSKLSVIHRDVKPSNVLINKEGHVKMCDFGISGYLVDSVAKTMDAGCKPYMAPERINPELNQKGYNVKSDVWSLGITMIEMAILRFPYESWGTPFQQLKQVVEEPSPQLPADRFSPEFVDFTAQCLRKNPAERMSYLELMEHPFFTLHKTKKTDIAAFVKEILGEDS

In assay [9] the target is T2, Electron transfer flavoprotein subunit beta (Homo sapiens, UniProt P38117).
T2 sequence (P38117 whole entry): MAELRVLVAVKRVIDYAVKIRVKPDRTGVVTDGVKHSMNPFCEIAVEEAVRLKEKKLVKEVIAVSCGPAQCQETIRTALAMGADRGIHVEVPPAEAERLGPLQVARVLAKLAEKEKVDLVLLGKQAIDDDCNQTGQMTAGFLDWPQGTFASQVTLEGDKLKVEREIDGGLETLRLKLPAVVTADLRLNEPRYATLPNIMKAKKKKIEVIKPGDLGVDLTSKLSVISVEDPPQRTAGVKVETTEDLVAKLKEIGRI

Assay [10] concerns the target MAP kinase-activated protein kinase 2 (Homo sapiens, UniProt P49137).
Assay [11] concerns the target Interleukin-1 receptor-associated kinase 1 (Homo sapiens, UniProt P51617).
The target in assay [12] is DnaJ homolog subfamily A member 1 (Homo sapiens, UniProt P31689).
Assay [13] concerns the target T3, Ephrin type-B receptor 6 (Homo sapiens, UniProt O15197).
T3 sequence (O15197 whole entry): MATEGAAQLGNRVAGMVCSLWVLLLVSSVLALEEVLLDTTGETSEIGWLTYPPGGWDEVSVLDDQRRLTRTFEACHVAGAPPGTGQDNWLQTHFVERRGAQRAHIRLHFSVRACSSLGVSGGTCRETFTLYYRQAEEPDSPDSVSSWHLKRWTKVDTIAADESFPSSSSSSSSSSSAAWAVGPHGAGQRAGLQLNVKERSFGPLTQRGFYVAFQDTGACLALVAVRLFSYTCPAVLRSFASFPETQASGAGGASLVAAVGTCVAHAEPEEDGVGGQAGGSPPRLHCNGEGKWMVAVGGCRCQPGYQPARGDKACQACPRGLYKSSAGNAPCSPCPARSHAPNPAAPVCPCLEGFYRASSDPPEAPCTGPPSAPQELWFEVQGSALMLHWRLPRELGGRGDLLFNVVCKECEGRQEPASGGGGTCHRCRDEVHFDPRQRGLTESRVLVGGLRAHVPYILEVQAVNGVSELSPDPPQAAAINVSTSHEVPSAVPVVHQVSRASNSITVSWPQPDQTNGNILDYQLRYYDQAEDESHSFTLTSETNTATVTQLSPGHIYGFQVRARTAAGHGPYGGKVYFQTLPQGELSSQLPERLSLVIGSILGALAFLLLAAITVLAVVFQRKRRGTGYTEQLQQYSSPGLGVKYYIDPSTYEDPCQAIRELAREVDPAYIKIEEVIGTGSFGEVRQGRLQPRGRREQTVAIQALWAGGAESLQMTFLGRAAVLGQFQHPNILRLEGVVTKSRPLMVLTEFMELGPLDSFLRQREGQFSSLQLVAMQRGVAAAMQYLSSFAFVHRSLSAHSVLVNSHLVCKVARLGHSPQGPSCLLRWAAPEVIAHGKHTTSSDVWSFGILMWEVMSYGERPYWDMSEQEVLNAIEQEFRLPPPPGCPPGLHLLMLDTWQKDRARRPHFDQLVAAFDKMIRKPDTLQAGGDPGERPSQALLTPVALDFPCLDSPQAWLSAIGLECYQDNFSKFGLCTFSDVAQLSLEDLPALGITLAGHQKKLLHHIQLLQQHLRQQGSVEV

Assay [14] deals with BMP-2-inducible protein kinase (Homo sapiens, UniProt Q9NSY1).
Sequence of BMP-2-inducible protein kinase (Q9NSY1 whole entry): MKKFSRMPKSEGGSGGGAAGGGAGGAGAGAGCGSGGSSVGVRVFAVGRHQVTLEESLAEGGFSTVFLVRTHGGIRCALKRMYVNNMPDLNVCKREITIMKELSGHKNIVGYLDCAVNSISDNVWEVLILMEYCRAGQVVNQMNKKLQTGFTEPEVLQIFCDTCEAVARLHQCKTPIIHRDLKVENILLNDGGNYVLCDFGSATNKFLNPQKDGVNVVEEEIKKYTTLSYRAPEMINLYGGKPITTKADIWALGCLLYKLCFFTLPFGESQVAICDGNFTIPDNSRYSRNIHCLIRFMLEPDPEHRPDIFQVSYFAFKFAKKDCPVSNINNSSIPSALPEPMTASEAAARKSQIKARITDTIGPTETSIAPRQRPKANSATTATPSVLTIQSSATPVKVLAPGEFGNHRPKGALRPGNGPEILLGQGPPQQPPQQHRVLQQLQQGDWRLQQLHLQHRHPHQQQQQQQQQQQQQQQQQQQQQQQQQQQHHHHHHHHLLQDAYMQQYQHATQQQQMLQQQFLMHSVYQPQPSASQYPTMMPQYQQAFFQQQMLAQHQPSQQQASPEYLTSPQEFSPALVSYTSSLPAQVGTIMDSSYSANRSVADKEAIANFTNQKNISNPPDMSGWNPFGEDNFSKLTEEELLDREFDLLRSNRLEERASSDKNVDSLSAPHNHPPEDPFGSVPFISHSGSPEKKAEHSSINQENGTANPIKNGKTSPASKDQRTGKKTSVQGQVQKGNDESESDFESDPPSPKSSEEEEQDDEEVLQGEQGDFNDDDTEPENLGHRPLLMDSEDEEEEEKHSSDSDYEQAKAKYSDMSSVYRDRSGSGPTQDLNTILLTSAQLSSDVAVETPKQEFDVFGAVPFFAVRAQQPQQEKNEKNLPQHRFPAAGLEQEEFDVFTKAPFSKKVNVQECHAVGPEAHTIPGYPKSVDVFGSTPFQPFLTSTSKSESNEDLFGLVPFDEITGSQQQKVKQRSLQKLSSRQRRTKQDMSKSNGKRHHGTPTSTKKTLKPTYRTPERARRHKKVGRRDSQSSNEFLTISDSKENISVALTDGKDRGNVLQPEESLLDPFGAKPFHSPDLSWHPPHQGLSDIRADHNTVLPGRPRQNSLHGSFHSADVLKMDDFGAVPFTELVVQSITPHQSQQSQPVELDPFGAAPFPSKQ
Assay [15] addresses T4, Membrane-associated tyrosine- and threonine-specific cdc2-inhibitory kinase (Homo sapiens, UniProt Q99640).
T4 sequence (Q99640 whole entry): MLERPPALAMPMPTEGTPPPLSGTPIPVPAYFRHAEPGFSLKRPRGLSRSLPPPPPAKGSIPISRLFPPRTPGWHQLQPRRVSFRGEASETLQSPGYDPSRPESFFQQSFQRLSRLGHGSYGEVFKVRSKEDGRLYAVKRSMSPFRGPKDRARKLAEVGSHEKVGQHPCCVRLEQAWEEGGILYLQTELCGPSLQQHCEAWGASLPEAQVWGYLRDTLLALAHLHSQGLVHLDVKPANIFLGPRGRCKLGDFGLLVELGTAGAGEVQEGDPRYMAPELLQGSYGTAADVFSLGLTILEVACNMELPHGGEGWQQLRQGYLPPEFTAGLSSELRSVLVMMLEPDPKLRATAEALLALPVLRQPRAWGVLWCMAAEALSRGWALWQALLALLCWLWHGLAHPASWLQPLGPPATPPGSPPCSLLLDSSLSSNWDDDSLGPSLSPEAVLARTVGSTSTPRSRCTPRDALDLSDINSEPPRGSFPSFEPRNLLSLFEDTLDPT

Assay [16] deals with Atypical kinase COQ8A, mitochondrial (Homo sapiens, UniProt Q8NI60).
Sequence of Atypical kinase COQ8A, mitochondrial (Q8NI60 whole entry): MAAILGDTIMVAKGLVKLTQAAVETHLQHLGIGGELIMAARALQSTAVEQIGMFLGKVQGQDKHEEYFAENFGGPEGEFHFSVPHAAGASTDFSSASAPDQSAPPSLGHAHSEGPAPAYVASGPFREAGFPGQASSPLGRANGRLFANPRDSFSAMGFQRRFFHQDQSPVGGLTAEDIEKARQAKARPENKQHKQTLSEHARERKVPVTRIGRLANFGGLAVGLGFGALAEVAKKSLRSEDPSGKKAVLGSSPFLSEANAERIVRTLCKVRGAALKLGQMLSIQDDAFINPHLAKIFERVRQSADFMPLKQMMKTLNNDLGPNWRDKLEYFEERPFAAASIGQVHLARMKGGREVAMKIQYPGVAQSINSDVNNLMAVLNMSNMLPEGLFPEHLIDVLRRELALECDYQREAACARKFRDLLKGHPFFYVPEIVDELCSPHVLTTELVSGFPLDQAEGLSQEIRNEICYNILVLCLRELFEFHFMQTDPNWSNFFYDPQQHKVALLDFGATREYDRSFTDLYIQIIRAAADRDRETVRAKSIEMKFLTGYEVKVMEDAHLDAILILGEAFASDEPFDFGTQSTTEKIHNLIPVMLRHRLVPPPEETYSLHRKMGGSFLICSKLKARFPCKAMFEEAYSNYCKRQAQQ

The source made the active and inactive calls. Cut-off read from the data, not from the text of the source, for most assays here: actives have a measured Kd and inactives only a lower limit.
Note: in the data inactive means no Kd found up to 30 µM.

Sequence of MAP kinase-activated protein kinase 2 (P49137 whole entry): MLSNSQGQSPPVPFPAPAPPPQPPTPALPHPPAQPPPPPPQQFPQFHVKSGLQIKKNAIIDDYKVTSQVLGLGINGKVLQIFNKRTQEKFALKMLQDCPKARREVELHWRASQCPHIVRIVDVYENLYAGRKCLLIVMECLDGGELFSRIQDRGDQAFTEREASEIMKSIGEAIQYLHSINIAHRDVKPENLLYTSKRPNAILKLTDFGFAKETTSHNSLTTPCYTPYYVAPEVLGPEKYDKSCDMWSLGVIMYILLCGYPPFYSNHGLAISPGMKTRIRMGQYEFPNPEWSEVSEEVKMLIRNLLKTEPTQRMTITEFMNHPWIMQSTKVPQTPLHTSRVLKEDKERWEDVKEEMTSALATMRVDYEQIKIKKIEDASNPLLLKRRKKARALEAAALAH
Sequence of Serine/threonine-protein kinase 10 (O94804 whole entry): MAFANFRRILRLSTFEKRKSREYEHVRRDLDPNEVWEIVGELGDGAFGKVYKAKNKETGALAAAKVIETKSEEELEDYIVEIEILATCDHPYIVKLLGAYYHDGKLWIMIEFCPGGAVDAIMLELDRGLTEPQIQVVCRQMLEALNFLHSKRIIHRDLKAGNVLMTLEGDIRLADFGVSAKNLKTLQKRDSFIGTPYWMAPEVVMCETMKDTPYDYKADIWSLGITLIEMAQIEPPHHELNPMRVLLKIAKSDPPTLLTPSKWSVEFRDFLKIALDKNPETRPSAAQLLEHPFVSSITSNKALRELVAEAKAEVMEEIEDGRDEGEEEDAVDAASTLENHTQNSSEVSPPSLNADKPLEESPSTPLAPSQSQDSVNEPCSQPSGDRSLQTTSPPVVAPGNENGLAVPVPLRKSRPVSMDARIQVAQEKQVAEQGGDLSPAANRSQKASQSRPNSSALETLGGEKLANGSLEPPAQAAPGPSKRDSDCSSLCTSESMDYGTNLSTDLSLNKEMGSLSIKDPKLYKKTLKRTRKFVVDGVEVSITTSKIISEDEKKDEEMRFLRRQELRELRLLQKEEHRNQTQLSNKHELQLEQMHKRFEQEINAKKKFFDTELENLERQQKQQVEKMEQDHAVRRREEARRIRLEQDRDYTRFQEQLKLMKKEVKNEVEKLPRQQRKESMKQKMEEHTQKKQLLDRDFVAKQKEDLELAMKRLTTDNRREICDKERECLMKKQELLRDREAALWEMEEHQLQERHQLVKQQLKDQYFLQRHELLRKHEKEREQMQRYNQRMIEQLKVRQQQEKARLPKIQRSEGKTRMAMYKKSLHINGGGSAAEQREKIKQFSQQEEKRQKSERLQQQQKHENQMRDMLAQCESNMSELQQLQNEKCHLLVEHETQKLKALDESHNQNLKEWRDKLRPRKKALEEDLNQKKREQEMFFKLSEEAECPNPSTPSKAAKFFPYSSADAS
Sequence of Dual specificity protein kinase CLK1 (P49759 whole entry): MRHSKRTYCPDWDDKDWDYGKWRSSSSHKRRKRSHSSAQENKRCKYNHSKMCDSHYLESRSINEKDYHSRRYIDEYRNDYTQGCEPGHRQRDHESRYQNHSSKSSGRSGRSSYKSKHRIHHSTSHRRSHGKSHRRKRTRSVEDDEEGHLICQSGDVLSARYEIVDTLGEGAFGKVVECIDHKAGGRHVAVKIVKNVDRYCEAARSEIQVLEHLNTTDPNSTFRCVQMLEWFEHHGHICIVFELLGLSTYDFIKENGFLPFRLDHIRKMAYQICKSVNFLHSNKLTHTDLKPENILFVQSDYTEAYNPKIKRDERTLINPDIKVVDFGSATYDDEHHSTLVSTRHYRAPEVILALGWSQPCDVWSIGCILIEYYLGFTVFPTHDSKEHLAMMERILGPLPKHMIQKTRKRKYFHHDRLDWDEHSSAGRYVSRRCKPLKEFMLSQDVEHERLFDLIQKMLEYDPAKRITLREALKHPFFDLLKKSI
Sequence of Ribosomal protein S6 kinase alpha-6 (Q9UK32 whole entry): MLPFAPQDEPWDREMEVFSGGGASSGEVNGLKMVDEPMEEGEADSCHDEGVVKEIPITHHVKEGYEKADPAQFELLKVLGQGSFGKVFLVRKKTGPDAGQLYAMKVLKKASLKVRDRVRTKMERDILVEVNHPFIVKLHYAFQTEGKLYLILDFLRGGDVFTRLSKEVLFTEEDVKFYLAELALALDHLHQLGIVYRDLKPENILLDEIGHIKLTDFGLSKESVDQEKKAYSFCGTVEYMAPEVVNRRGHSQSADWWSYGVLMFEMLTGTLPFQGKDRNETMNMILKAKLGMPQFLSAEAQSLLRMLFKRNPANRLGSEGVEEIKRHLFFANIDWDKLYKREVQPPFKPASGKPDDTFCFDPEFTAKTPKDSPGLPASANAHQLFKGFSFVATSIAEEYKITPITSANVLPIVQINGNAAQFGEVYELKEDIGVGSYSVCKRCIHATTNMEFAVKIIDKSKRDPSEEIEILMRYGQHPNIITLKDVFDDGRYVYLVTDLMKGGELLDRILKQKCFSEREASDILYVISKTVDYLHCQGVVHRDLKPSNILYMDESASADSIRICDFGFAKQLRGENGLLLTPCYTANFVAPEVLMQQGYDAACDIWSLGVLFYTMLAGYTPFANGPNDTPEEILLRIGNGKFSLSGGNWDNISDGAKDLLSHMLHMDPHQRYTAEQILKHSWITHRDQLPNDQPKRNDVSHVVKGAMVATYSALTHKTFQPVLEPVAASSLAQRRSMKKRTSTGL
Sequence of RAC-alpha serine/threonine-protein kinase (P31749 whole entry): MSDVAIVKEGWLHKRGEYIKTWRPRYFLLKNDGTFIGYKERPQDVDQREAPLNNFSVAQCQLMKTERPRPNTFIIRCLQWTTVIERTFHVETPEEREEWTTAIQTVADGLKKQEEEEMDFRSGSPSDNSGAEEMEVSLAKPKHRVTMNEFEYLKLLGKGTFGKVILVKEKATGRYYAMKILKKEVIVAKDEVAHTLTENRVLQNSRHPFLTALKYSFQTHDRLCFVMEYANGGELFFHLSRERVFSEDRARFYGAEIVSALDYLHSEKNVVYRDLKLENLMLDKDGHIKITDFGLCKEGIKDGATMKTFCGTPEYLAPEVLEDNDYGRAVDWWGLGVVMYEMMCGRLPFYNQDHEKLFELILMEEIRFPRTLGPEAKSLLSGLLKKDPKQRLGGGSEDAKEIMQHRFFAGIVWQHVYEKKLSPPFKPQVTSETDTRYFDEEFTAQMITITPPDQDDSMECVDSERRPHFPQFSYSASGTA

On to `O=C(Nc1ccc(-c2ccnc(Nc3ccc(N4CCOCC4)cc3)n2)cc1)C1CCCN1` (stereo not given) [XL-019], for which the Kd in assay [1], in assay [2], in [3], in [4], in assay [5] and in assay [6] was > 30 µM (inactive) each time. In addition, the Kd – broadly, the constant that tells how readily two partners part at equilibrium – was > 30 µM (inactive) in [7]; > 30 µM (inactive) in assay [8]; > 30 µM (inactive) in assay [9]; 0.354 µM (active) in assay [10]; > 30 µM (inactive) in assay [11]; > 30 µM (inactive) in assay [12]. Further, the Kd in [13] was > 30 µM (inactive); in [14] it was 0.02 µM (active); in assay [15], > 30 µM (inactive); in [16], > 30 µM (inactive).
On to `CNC(=O)CN1CCC(Oc2cc3c(Nc4cccc(Cl)c4F)ncnc3cc2OC)CC1` [SAPITINIB], for which the Kd in assay [1] was > 30 µM (inactive); in assay [2], > 30 µM (inactive); in [3], > 30 µM (inactive); in assay [4], > 30 µM (inactive); in assay [5], > 30 µM (inactive); in assay [6], 0.835 µM (active). Further, the Kd in assay [7], in [8], in [9], in [10], in assay [11] and in [12] was > 30 µM (inactive) each time. Also, the Kd in assay [13], in assay [14], in [15] and in [16] was > 30 µM (inactive) each time.
Take `Cc1cc([C@@H](C)Nc2ccccc2C(=O)O)c2nc(N3CCOCC3)cc(=O)n2c1` [AZD-6482]: the Kd in [1], in assay [2], in assay [3], in [4], in assay [5] and in [6] was > 30 µM (inactive) each time. Moreover, the Kd in assay [7], in assay [8], in [9], in [10], in assay [11] and in assay [12] was > 30 µM (inactive) throughout. Moreover, the Kd in [13], in assay [14], in assay [15] and in assay [16] was > 30 µM (inactive) each time.
On to `CCN1CCN(Cc2ccc(-c3cc4c(N[C@H](C)c5ccccc5)ncnc4[nH]3)cc2)CC1` [AEE-788], for which the Kd in assay [1] is > 30 µM (inactive); in assay [2] it was > 30 µM (inactive); in [3], > 30 µM (inactive); in assay [4], > 30 µM (inactive); in assay [5], 42.6 µM (active); in assay [6] it was > 30 µM (inactive). The Kd in assay [7], in assay [8], in assay [9], in [10], in assay [11] and in assay [12] was > 30 µM (inactive) each time. Besides, the Kd in assay [13], in assay [14], in assay [15] and in assay [16] was > 30 µM (inactive) each time.
Consider `COCCNCc1ccc(-c2cc3nccc(Oc4ccc(NC(=S)NC(=O)Cc5ccc(F)cc5)cc4F)c3s2)nc1` [GLESATINIB], for which the Kd in assay [1], in assay [2], in assay [3], in assay [4], in [5] and in assay [6] was > 30 µM (inactive) each time. The Kd in assay [7], in [8], in [9], in assay [10], in [11] and in [12] was > 30 µM (inactive) in each case. Further, the Kd in assay [13], in [14], in assay [15] and in assay [16] was > 30 µM (inactive) throughout.

The record behind these values is ChEMBL document CHEMBL3991601, “The target landscape of clinical kinase drugs” (Science, 2017).
